Test results from patent publication US20080045534A1, “Derivatives of 1,3-diamino benzene as potassium channel modulators” (Valeant Pharmaceuticals North America, priority 2006, published 2008).
pEC50: −log10 of the molar value.

Target: T1, KCNQ 2/3 (Rattus norvegicus, UniProt O88943+O88944)
T1 construct: endogenous in cells; host or cells: PC-12 cells differentiated with NGF-7s
Experiment: rubidium (Rb+) efflux assay in NGF-differentiated PC-12 cells
Format: cell-based
Settings: concentration for 50% of maximal Rb+ efflux, depolarization buffer (15 mM KCl), 10 min at room temperature
Protocol: Compounds of this invention formula were evaluated as KCNQ 2/3 modulators by measuring rhubidium release in the following assay.
Methods: PC-12 cells were grown at 37° C. and 5% CO2 in DMEM/F12 Medium supplemented with 10% horse serum, 5% fetal bovine serum, 2 mM glutamine, 100 U/ml penicillin, 100 U/ml streptomycin. They were plated in poly-D-lysine-coated 96-well cell culture microplates at a density of 40,000 cells/well and differentiated with 100 ng/ml NGF-7s for 2-5 days. For the assay, the medium was aspirated and the cells were washed once with 0.2 ml in wash buffer (25 mM Hepes, pH 7.4, 150 mM NaCl, 1 mM MgCl2, 0.8 mM NaH2PO4, 2 mM CaCl2). The cells were then loaded with 0.2 ml Rb^+ loading buffer (wash buffer plus 5.4 mM […], 5 mM glucose) and incubated at 37° C. for 2 h. Attached cells were quickly washed three times with buffer (same as Rb^+ loading buffer, but containing 5.4 mM KCl instead of RbCl) to remove extracellular Rb^+. Immediately following the wash, 0.2 ml of depolarization buffer (wash buffer plus 15 mM KCl) with or without compounds was added to the cells to activate efflux of potassium ion channels. After incubation for 10 min at room temperature, the supernatant was carefully removed and collected. Cells were lysed by the addition of 0.2 ml of lysis buffer (depolarization buffer plus 0.1% Triton X-100) and the cell lysates were also collected. If collected samples were not immediately analyzed for Rb^+ contents by atomic absorption spectroscopy (see below), they were stored at 4° C. without any negative effects on subsequent Rb^+ analysis.
The concentration of Rb^+ in the supernatants (Rb^+Sup) and cell lysates (Rb^+Lys) was quantified using an ICR8000 flame atomic absorption spectrometer (Aurora Biomed Inc., Vancouver, B.C.) under conditions defined by the manufacturer. One 0.05 ml samples were processed automatically from microtiter plates by dilution with an equal volume of Rb^+ sample analysis buffer and injection into an air-acetylene flame. The amount of Rb^+ in the sample was measured by absorption at 780 nm using a hollow cathode lamp as light source and a PMT detector. A calibration curve covering the range 0-5 mg/L Rb^+ in sample analysis buffer was generated with each set of plates. The percent Rb^+ efflux (F) was defined by
F=[Rb^+Sup/(Rb^+Sup+Rb^+Lys)]×100%.
The effect (E) of a compound was defined by:
where the Fc is the efflux in the presence of compound in depolarization buffer, Fb is the efflux in basal buffer, and Fs is the efflux in depolarization buffer, and. The effect (E) and compound concentration relationship was plotted to calculate an EC50 value, a compound's concentration for 50% of maximal Rb^+ efflux. Legend: A: EC50<50 nM; B: EC50=50 nM-200 nM; C: EC50=200 nM-1.0 μM; D: EC50=1.0 μM-10 μM; E: EC50>10 μM

| pEC50 | SMILES |
| --- | --- |
| > 7.30 | Cc1ccc(NCc2ccc(C(F)(F)F)cc2)c(C)c1NC(=O)CCC1CCCC1 |
| > 7.30 | Cc1ccc(NCc2ccc(F)cc2)c(C)c1NC(=O)CCC1CCCC1 |
| > 7.30 | CCc1ccc(NCc2ccc(F)cc2)c(CC)c1NC(=O)CCC1CCCC1 |
| 6.70 to 7.30 | Cc1ccc(NCc2ccc(F)cc2)c(C)c1NC(=O)CC(C)(C)C |
| 6.70 to 7.30 | CCc1c(NCc2ccc(F)cc2)ccc(C)c1NC(=O)CC(C)(C)C |
| 6.70 to 7.30 | CCc1ccc(NCc2ccc(F)cc2)c(C)c1NC(=O)CC(C)(C)C |
| 6.70 to 7.30 | COc1ccc(NCc2ccc(F)cc2)c(C)c1NC(=O)CCC1CCCC1 |
| 6.00 to 6.70 | Cc1ccc(NCc2ccc(C(F)(F)F)cc2)c(C)c1NC(=O)CC(C)(C)C |
| 6.70 to 7.30 | Cc1c(NCc2ccc(F)cc2)cccc1NC(=O)CC(C)(C)C |
| 6.00 to 6.70 | Cc1ccc(NCc2ccc(F)cc2)cc1NC(=O)CC(C)(C)C |
| 6.70 to 7.30 | Cc1ccc(NCc2ccc(F)cc2)c(Cl)c1NC(=O)CC(C)(C)C |
| 5.00 to 6.00 | Cc1ccc(NC(=O)CC(C)(C)C)cc1N1CCOCC1 |
| < 5.00 | Cc1ccc(N2CCOCC2)cc1NC(=O)CC(C)(C)C |
| < 5.00 | Cc1c(NC(=O)CC(C)(C)C)cccc1N1CCOCC1 |
| 5.00 to 6.00 | Cc1ccc(N2CCOCC2)c(C)c1NC(=O)CC(C)(C)C |
| 5.00 to 6.00 | COc1ccc(N2CCOCC2)c(C)c1NC(=O)CC(C)(C)C |
| 5.00 to 6.00 | Cc1c(N2CCOCC2)ccc(F)c1NC(=O)CC(C)(C)C |
| 5.00 to 6.00 | CC(C)(C)CC(=O)Nc1cc(N2CCOCC2)c(F)cc1F |
| < 5.00 | CC(C)(C)CC(=O)Nc1ccc(F)c(N2CCOCC2)c1 |
| 5.00 to 6.00 | Cc1cc(Cl)c(N2CCOCC2)cc1NC(=O)CC(C)(C)C |
| 6.00 to 6.70 | Cc1ccc(N2CCc3ccccc3C2)cc1NC(=O)CC(C)(C)C |
